Source: PMC8512853, “Synthesis, Bioactivity, Pharmacokinetic and Biomimetic Properties of Multi-Substituted Coumarin Derivatives” (Molecules, 2021)

Key:
soybean LOX = biological target: T1, soybean LOX (Glycine max, UniProt P08170); assay: Inhibition of soybean LOX; type: biochemical; details: for inhibition at 100 µM: read-out: Soybean LOX % inhibition (100 μΜ)
T1 construct: purchased Sigma-Aldrich and Fluka
T1 sequence (P08170 1-839): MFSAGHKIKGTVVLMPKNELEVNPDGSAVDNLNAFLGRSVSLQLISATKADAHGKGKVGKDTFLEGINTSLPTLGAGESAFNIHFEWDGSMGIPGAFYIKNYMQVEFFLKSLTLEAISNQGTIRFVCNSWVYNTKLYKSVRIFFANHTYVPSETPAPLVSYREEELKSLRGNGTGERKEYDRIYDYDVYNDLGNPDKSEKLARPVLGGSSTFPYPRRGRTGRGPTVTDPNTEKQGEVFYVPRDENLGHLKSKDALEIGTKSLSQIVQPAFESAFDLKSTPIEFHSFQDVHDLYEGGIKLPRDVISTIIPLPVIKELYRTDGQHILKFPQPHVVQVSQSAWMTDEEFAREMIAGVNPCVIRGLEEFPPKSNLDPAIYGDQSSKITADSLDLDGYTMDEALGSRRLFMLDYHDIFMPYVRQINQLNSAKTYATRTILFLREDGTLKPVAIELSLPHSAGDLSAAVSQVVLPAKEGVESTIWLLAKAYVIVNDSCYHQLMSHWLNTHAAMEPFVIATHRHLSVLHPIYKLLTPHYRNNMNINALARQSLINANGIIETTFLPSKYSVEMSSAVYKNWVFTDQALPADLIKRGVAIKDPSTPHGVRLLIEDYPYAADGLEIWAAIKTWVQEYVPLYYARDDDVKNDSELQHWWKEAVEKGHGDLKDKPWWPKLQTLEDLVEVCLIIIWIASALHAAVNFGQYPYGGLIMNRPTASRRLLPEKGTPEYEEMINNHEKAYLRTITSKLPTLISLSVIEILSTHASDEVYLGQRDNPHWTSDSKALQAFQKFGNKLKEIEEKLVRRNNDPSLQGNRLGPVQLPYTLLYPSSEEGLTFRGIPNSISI
Method: Soybean LOX is a plant enzyme which has been used widely as a prototype for studying the functional and structural properties of the homologous family of lipoxygenases, presenting satisfactory homology with the human 5-LOX [14]. Linoleic acid (LA) is a standard substrate for plant LOXs. In this protocol, all new molecules were tested as inhibitors of soybean LOX as an indication of their anti-inflammatory activity (Table 3).
For the reference sample in a UV cuvette 10 μL of the test sample (100 μM diluted in DMSO), 200 μL LOX solution (diluted in NaCl 0.9%), 100 μL LA (diluted in Tris buffer) and Tris buffer solution (pH 9) were added to a final volume of 1 mL. Respectively for the measurement sample, also in a UV cuvette 10 μL of test sample, 200 μL LOX solution, and Tris buffer solution (pH 9) were added to a final volume of 1mL. Standard and blank samples were prepared in the same way using DMSO (solvent) instead of the tested coumarin analogues.

HaCaT cells = assay: MTT cell viability assay, HaCaT; type: cell-based, human; details: 100 μM
In short: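 HaCaT cells seeded, grown 24 h (37 °C, 5% CO2), then exposed 24 h to each compound at 100 μM in DMEM; MTT added for 4 h, formazan dissolved in DMSO, OD read at 540 nm (reference 720 nm). Triplicates versus untreated cells, no-cell blank and 100 μM silibinin as cell-killing standard.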

A549 cells = assay: MTT cytotoxicity assay, A549; type: cell-based, human; details: 24 h; for cytotoxicity at 100 µM: Homo sapiens, A549, 100 μΜ, read-out: Cell Toxicity A549 % (100 μΜ)
Method: Furthermore, the coumarin compounds synthesized in this study were also evaluated for their cytotoxicity against A549 (adenocarcinomic human alveolar basal epithelial cells) and A375 (human melanoma) cell lines.
This protocol was used for the evaluation of cell viability and all the cell lines. It must be noted that this assay describes the count of cells that remain alive after the treatment. For the experimental procedure a standard solution of MTT 1mg/mL in PBS was prepared which after filtration ([…] filter (Millipore, Carrigtwohill, Ireland)) was stored in the dark (4–8 °C) until use. In a 96-well plate, HaCaT, A549 and A375 cells were seeded in a number of 30 × 10^4 cells/well for each evaluation series respectively. The cells were incubated (37 °C, 5% CO2) for 24 h, followed by the addition of the tested analogues (100 μM, diluted in DMEM) and another 24-h incubation. Next, appropriate amount of MTT was added in the tested wells and the plate returned to the incubator for the next 4 h for the formation of the formazan crystals. The formazan crystals were then redissolved by adding DMSO (100 μL) and stirring lightly for 40 min, after which the absorbance was measured in a plate reader at 540 nm with a reference absorbance of 720 nm.
All samples were tested in triplicate, against a control (only cells), blank (no cells), and positive control (100 μM standard silibinin solution was used as a “cell-killing” standard).

| Structure (SMILES) | inhibition at 100 µM (soybean LOX) | cytotoxicity in HaCaT (HaCaT cells) | cytotoxicity at 100 µM (A549 cells) | Cell Toxicity A549 % (100 μΜ) (A549 cells) | Soybean LOX % inhibition (100 μΜ) (soybean LOX) | IC50 (soybean LOX) |
| --- | --- | --- | --- | --- | --- | --- |
| Cc1c(-c2ccc(Cl)cc2)c(=O)oc2cccc(O)c12 [Compound 4c, 3-(4-chlorophenyl)-5-hydroxy-4-methyl-chromen-2-one] | 0.9% | 63.7% | 54.5% |  |  |  |
| Cc1c(-c2ccc(O)cc2)c(=O)oc2ccccc12 [Compound 4h, 3-(4-hydroxyphenyl)-4-methyl-chromen-2-one] | 27.2% |  | 33.7% |  |  |  |
| CC(=O)Oc1ccc(-c2c(C)c3cc(Br)ccc3oc2=O)cc1 [Compound 3i, 3-(4-acetyloxyphenyl)-6-bromo-4-methyl-chromen-2-one] | 46.5% |  |  | no |  |  |
| CC(=O)Oc1ccc(-c2c(C)c3ccccc3oc2=O)cc1OC(C)=O [Compound 3l, 3-(4,5-diacetyloxyphenyl)-4-methyl-chromen-2-one] | 31.4% |  |  | no |  |  |
| CC(=O)Oc1ccc(-c2c(C)c3ccccc3oc2=O)cc1 [Compound 3h, 3-(4-acetyloxyphenyl)-4-methyl-chromen-2-one] | 33.8% |  |  | no |  |  |
| CC(=O)Oc1ccc(-c2c(C)c3cc(Br)ccc3oc2=O)cc1OC(C)=O [Compound 3m, 3-(4,5-diacetyloxyphenyl)-6-bromo-4-methyl-chromen-2-one] | 48% |  |  | no |  |  |
| CC(=O)Oc1cccc2oc(=O)c(-c3ccc(F)cc3)c(C)c12 [Compound 3f, 5-acetyloxy-3-(4-fluorophenyl)-4-methyl-chromen-2-one] | 20.1% |  |  | no | inactive |  |
| CC(=O)Oc1ccc(-c2c(C)c3cc(Br)cc(Br)c3oc2=O)cc1OC(C)=O [Compound 3o, 3-(4,5-diacetyloxyphenyl)-6,8-dibromo-4-methyl-chromen-2-one] |  |  |  | no | no |  |
| Cc1c(-c2cccc(F)c2)c(=O)oc2cccc(O)c12 [Compound 4e, 3-(3-fluorophenyl)-5-hydroxy-4-methyl-chromen-2-one] |  |  | 52.3% |  |  | 4.1 µM |
| CC(=O)Oc1ccc(-c2c(C)c3cc(Cl)ccc3oc2=O)cc1OC(C)=O [Compound 3n, 3-(4,5-diacetyloxyphenyl)-6-chloro-4-methyl-chromen-2-one] |  |  |  | no |  | 56.5 µM |
| CC(=O)Oc1ccc(-c2c(C)c3cc(Cl)ccc3oc2=O)cc1 [Compound 3j, 3-(4-acetyloxyphenyl)-6-chloro-4-methyl-chromen-2-one] |  |  |  | no |  | 49.5 µM |
| CC(=O)Oc1cccc2oc(=O)c(-c3cccc(Br)c3)c(C)c12 [Compound 3g, 5-acetyloxy-3-(3-bromophenyl)-4-methyl-chromen-2-one] |  |  |  | no |  | 40.5 µM |
| CC(=O)Oc1cccc2oc(=O)c(-c3cccc(F)c3)c(C)c12 [Compound 3e, 5-acetyloxy-3-(3-fluorophenyl)-4-methyl-chromen-2-one] |  |  | 8.9% |  |  | 11.4 µM |
| Cc1c(-c2cccc(Cl)c2)c(=O)oc2cccc(O)c12 [Compound 4b, 3-(3-chlorophenyl)-5-hydroxy-4-methyl-chromen-2-one] | 47.3% |  |  | no |  |  |
| CC(=O)Oc1cccc2oc(=O)c(-c3cccc(Cl)c3)c(C)c12 [Compound 3b, 5-acetyloxy-3-(3-chlorophenyl)-4-methyl-chromen-2-one] |  |  | 24.6% |  |  | 31.6 µM |
| Cc1c(-c2ccccc2Cl)c(=O)oc2cccc(O)c12 [Compound 4a, 3-(2-chlorophenyl)-5-hydroxy-4-methyl-chromen-2-one] |  |  | 64.7% |  |  | 10 µM |
| Cc1c(-c2ccc(O)cc2)c(=O)oc2ccc(Br)cc12 [Compound 4i, 6-bromo-3-(4-hydroxyphenyl)-4-methyl-chromen-2-one] | 19.3% |  | 21.7% |  |  |  |
| CC(=O)Oc1cccc2oc(=O)c(-c3ccccc3F)c(C)c12 [Compound 3d, 5-acetyloxy-3-(2-fluorophenyl)-4-methyl-chromen-2-one] | 11.6% |  | 7.5% |  | inactive |  |
| Cc1c(-c2ccc(F)cc2)c(=O)oc2cccc(O)c12 [Compound 4f, 3-(4-fluorophenyl)-5-hydroxy-4-methyl-chromen-2-one] | 39.2% |  | 62.5% |  |  |  |
| CC(=O)Oc1cccc2oc(=O)c(-c3ccc(Cl)cc3)c(C)c12 [Compound 3c, 5-acetyloxy-3-(4-chlorophenyl)-4-methyl-chromen-2-one] |  |  |  | no | no |  |
| Cc1c(-c2ccccc2F)c(=O)oc2cccc(O)c12 [Compound 4d, 3-(2-fluorophenyl)-5-hydroxy-4-methyl-chromen-2-one] |  |  | 75.7% |  |  | 31.6 µM |
| CC(=O)Oc1ccc(-c2c(C)c3cc(Br)cc(Br)c3oc2=O)cc1 [Compound 3k, 3-(4-acetyloxyphenyl)-6,8-dibromo-4-methyl-chromen-2-one] |  |  |  | no |  | 8.7 µM |
| CC(=O)Oc1cccc2oc(=O)c(-c3ccccc3Cl)c(C)c12 [Compound 3a, 5-acetyloxy-3-(2-chlorophenyl)-4-methyl-chromen-2-one] | 17% |  |  | no | inactive |  |
| Cc1c(-c2ccc(O)cc2)c(=O)oc2c(Br)cc(Br)cc12 [Compound 4k, 6,8-dibromo-3-(4-hydroxyphenyl)-4-methyl-chromen-2-one] | 33.4% |  | 66.5% |  | inactive |  |
| Cc1c(-c2ccc(O)cc2)c(=O)oc2ccc(Cl)cc12 [Compound 4j, 6-chloro-3-(4-hydroxyphenyl)-4-methyl-chromen-2-one] | 35% | 73% | 33.5% |  |  |  |
